Experiments:
Apyrase = molecular target: T1, Apyrase (Solanum tuberosum, UniProt P80595); assay: Inactivation of excess Apyrase in raw Bovine milk by surfactants, signal after ATP standard added; format: biochemical; details: 50 ul raw Bovine milk pretreated with 284 mU Apyrase
T1 construct: purchased Sigma Chemical A6535
T1 sequence (P80595 1-454): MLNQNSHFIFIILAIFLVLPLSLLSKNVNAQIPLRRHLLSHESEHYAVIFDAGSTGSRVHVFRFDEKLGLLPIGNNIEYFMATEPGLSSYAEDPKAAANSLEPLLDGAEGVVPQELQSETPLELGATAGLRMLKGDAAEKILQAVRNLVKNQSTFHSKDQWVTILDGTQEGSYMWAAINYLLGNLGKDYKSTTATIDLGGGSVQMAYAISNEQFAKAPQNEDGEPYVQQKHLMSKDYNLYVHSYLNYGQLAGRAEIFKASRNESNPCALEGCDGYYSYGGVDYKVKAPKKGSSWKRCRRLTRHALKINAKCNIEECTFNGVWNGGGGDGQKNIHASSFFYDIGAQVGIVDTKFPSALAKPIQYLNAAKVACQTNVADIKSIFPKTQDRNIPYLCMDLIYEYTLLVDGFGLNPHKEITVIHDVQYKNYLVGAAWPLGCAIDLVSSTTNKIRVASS
Protocol: It is important to eliminate any excess Apyrase that may remain in the raw Bovine milk sample after treatment with the Apyrase enzyme that was used to eliminate endogenous ATP in Example #4. […] Among the reagents evaluated were: dimethyldioctadecylammonium chloride, laureltrimethylammonium bromide (DTAB), benzyldimethyldodecylammonium bromide (BDDABr), and cetyl trimethylammonium bromide (CTAB). The experiment was performed by adding between 0.02% and 1% of the selected surfactant to 50 ul of raw Bovine milk that had treated previously been treated with 284 mU of Apyrase as detailed in example #4. The levels of ATP were confirmed by adding 50 uL of Promega luciferin-luciferase reagent (containing 25 mM HEPES buffer (pH 7.5), 40 pg luciferase, 100 pM luciferin, and 10 mM MgSO4). As expected the readings determined on the Hygiena Ensure Luminometer were too low to measure, since all of the ATP had already been eliminated by Apyrase treatment in Example #4. After the initially readings were determined as described above, 10 uL of a 10^−8M solution of ATP standard (Sigma Chemical) was added to the samples above and the bioluminescent signal was determined on a Hygiena Ensure Luminometer. As expected a signal was now detected, since all of the excess Apyrase added earlier had been eliminated by the surfactants being evaluated. The best results were seen when the detergents benzyldimethyldodecylammonium bromide (BDDABr) at 0.05% concentration and, laureltrimethylammonium bromide (DTAB) at 0.5% and 1.0% concentrations were added to the samples.

[1] = Sigma Chemical A6535, vendor specification; cited from earlier work
[2] = Elimination of endogenous ATP in raw Bovine milk, luciferin-luciferase readout; format: biochemical
Protocol: All assays were performed using 50 uL of raw Bovine milk and 50 uL of Promega luciferin-luciferase reagent (containing 25 mM HEPES buffer (pH 7.5), 40 pg luciferase, 100 pM luciferin, and 10mM MgSO4). Bioluminescent measurements were determined using the Hygiena Ensure System. The test was performed in both 100% and 50% raw Bovine milk. […] At a concentration of 284 mUnits the apyrase is able to deplete the endogenous ATP in 50 μL of raw milk in less than 30 seconds. The diminution of ATP was so fast with higher concentrations of Apyrase (diluting the enzyme) resulting in the inability to take meaningful reading, since all of the ATP was gone within 10 seconds. There are numerous commercially available ATP-degrading enzymes that can be tested for this purpose, but in our system, the Apyrase enzyme appears more than sufficient.

S. aureus = assay: Rupture of gram-positive bacteria by lytic enzyme, read by bioluminescence of released ATP; format: cell-based; details: 0.05% enzyme, PBS buffer, mastitic milk or healthy milk
From the text: As the goal of this invention is to target and detect only gram positive organisms active in mastitis such as: S. aureus, Coagulase negative staphylococci (CoNS) and S. uberi, it is important to identify lytic enzymes that can effectively rupture the cell walls of these pathogens in the presence of raw Bovine milk. […] The action against specific gram-positive organisms of these enzymes has been verified in PBS buffered solutions, but their ability to rupture bacteria had to be verified to in raw milk. The first candidates tested in for their activity in Bovine milk were Lysostaphin (Lyso) which attacks S. aureus, and Streptococcal phage lytic enzyme (PlyC) which attacks Streptococcus uberis. In all reactions, a concentration a of 0.05% of the phage lytic enzyme was used to evaluate the time required to rupture the cell wall of gram-positive bacteria in raw Bovine milk, as well as in a Phosphate-buffered saline (PBS) solution. It was determined that that in one hour, PlyC can eradicate up to 6 logs of S. uberis in PBS buffer, and either mastitic milk or healthy milk. The degree of lysing was determined by bioluminescence produced by the ATP released from the ruptured cells as described earlier. We then lowered the bacterial load to 2 logs of S. uberis in PBS buffer, and either mastitic milk or healthy milk, and it was determined that the PlyC can eradicate this bacterial load in 3 minutes or less. Similar experiments were performed with Lysostaphin (Lyso), which attacks S. aureus, and we determined we that can eradicate up to 6 logs of S. aureus in PBS buffer, and either mastitic milk or healthy milk in under 25 minutes. We then lowered the bacterial load to 2 logs of S. aureus in PBS buffer and either mastitic milk or healthy milk, and it was determined that the Lyso can eradicate this bacterial load in 2 minutes or less.

[3] = system: somatic cells present in raw Bovine milk; assay: Rupture of somatic cells in raw Bovine milk, ATP released; format: cell-based; details: in under 90 seconds; raw Bovine milk with predetermined somatic cell counts
Protocol: A number of surfactants (detergents) were evaluated for their ability to rupture the somatic cells present in raw Bovine milk samples. Among the reagents tested were Triton X100 (Sigma Chemical) and Neonol AF9-10 (Nonoxynol-9) (Elarum Petrochemicals). Determinations using both surfactants were performed on raw Bovine milk samples in which somatic cell counts were predetermined. […] The number of somatic cell ruptured was determined by quantifying the ATP released in 50 uL samples of treated raw Bovine milk (as a function of time) using 50 uL of Promega luciferin-luciferase reagent (containing 25 mM HEPES buffer (pH 7.5), 40 pg luciferase, 100 pM luciferin, and 10 mM MgSO4). Bioluminescent measurements were performed using a Hygiena Ensure luminometer and all readings were blank corrected.

CCCCCCCCCCCC[N+](C)(C)Cc1ccccc1.[Br-] [BDDABr, benzyldimethyldodecylammonium bromide]
inactivation of Apyrase (in words) (Apyrase; 0.05% surfactant): best results

CCCCCCCCCCCC[N+](C)(C)C.[Br-] [DTAB, laureltrimethylammonium bromide]
inactivation of Apyrase (in words) (Apyrase; 0.5% surfactant): best results | inactivation of Apyrase (in words) (Apyrase; 1.0% surfactant): best results

Apyrase
ATPase activity of the enzyme preparation [1]: ≥ 200 units/mg protein | elimination of endogenous ATP (in words) ([2]; 100% and 50% raw Bovine milk): works well | time to deplete the endogenous ATP ([2]; 284 mUnits apyrase, 50 μL of raw milk): less than 30 seconds | time until all of the ATP was gone ([2]; higher concentrations of Apyrase): ≤ 10 s

Lysostaphin: Lysostaphin (Lyso) which attacks S. aureus
time to eradicate bacterial load of 2 logs of S. aureus (S. aureus): ≤ 2 minutes | time to eradicate up to 6 logs of S. aureus (S. aureus): under 25 minutes | bacterial load of S. aureus eradicated (S. aureus; in under 25 minutes): up to 6 logs

Nonoxynol-9 [Neonol-9-10]
ability to rupture somatic cells (in words) [3]: superior to the Triton X100
